Measured values as given in ChEMBL document CHEMBL2074151, “Molecular identification of a rat novel organic anion transporter moat1, which transports prostaglandin D(2), leukotriene C(4), and taurocholate” (Biochem Biophys Res Commun, 2000).

How the values were obtained:
[1] = molecular target: T1, Solute carrier organic anion transporter family member 2B1 (Rattus norvegicus, UniProt Q9JHI3); test: TP_TRANSPORTER: inhibition of PGD2 uptake in Xenopus laevis oocytes; format: functional, cell-based, Oocyte
T1 sequence (Q9JHI3 whole entry): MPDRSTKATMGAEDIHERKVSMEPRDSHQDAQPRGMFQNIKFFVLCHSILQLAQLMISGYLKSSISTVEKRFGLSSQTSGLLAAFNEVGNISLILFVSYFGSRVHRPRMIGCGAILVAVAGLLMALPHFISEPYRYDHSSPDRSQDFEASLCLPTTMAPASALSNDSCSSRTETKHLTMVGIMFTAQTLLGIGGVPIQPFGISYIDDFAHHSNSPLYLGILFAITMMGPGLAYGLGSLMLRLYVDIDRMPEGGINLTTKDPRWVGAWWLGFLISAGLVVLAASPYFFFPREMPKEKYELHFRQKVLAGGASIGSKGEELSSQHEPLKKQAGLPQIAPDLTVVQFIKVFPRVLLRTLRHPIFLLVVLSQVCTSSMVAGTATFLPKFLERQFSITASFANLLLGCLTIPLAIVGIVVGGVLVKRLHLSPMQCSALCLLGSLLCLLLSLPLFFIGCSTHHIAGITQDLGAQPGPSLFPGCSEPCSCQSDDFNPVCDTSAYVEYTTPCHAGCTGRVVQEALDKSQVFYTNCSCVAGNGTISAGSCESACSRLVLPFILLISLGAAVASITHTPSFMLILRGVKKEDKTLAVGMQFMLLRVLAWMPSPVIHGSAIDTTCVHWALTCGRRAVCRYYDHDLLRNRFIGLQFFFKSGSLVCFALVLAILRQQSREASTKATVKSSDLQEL

[2] = molecular target: T1, Solute carrier organic anion transporter family member 2B1; test: (§1) TP_TRANSPORTER: uptake in Xenopus laevis oocytes; format: functional, cell-based; details: oocyte
[3] = substrate: CCCCC[C@H](O)/C=C/[C@H]1C(=O)C[C@H](O)[C@@H]1C/C=C\CCCC(=O)O; test: as §1; format: functional, cell-based, Oocyte
[4] = substrate: CCCCC/C=C\C\C=C/C=C/C=C/[C@@H](SC[C@@H](NC(=O)CC[C@H](N)C(=O)O)C(=O)NCC(=O)O)[C@@H](O)CCCC(=O)O; test: as §1; format: functional, cell-based, Oocyte

CCCCC[C@H](O)/C=C/[C@H]1[C@H](O)CC(=O)[C@@H]1CCCCCCC(=O)O [ALPROSTADIL]
IC50 [1]: 35.8 nM
Activity [2]: substrate [+]

CCCCC[C@H](O)/C=C/[C@H]1[C@H](O)CC(=O)[C@@H]1C/C=C\CCCC(=O)O [DINOPROSTONE]
Activity [2]: substrate [+]

CCCCC[C@H](O)/C=C/[C@@H]1[C@@H](C/C=C\CCCC(=O)O)[C@@H](O)C[C@H]1O [DINOPROST]
IC50 [1]: 287 nM
Activity [2]: is not a substrate [-]

CC#CCC(C)[C@H](O)/C=C/[C@@H]1[C@H]2C/C(=C/CCCC(=O)O)C[C@H]2C[C@H]1O (stereo not given in full) [ILOPROST]
Activity [2]: substrate [+]

C[C@]12CC[C@H](OS(=O)(=O)O)CC1=CC[C@@H]1[C@@H]2CC[C@]2(C)C(=O)CC[C@@H]12 [PRASTERONE SULFURIC ACID]
Activity [2]: is not a substrate [-]

CCCCC[C@H](O)/C=C/[C@H]1OC(O)C[C@H](O)[C@@H]1C/C=C\CCCC(=O)O (stereo not given in full) [THROMBOXANE B2]
Activity [2]: substrate [+]

B1: Solute carrier organic anion transporter family member 2B1 (Rattus norvegicus) (protein)
chain: T1 sequence (Q9JHI3 whole entry)
Km [3]: 0.0355 µM
Km [4]: 3.2 µM
